Measurements from article PMC7481357, “N-terminal Myristoylation Enhanced the Antimicrobial Activity of Antimicrobial Peptide PMAP-36PW” (Frontiers in Cellular and Infection Microbiology, 2020).

What was measured:
[1] = test system: L. monocytogenes CICC 21634; format: cell-based, Listeria monocytogenes; details: L. monocytogenes CICC 21634; * indicates resistant (CLSI, 2020)
Experimental: (§1) The MICs of Myr-36PW in vitro were measured through microdilution in accordance with the Clinical and Laboratory Standards Institute (CLSI, [2020]). The bacterial cells were cultured for 12 h at 37°C in the appropriate medium and then diluted to 1 × 10^6 CFU/mL. Equal volumes (100 μL) of bacterial cell suspension and two-fold serially diluted different concentrations peptides (0.0039–256 μg/mL) were added to each well of the sterile 96-well plate. The samples were incubated for 18 h at 37°C. After incubation, the MICs of the peptides were determined by evaluating the growth based on the OD600 of the cultures.

[2] = test system: P. aeruginosa GIM 1.551; format: cell-based, Pseudomonas aeruginosa; details: P. aeruginosa GIM 1.551; * indicates resistant (CLSI, 2020)
Experimental: as §1

[3] = test system: S. aureus ATCC 25923; experiment: Inhibition zone assay (disk diffusion); format: cell-based, Staphylococcus aureus; parameters: key: +, means the peptide has antibacterial activity; details: disk 10 μg peptide, 18 h at 37°C, * P < 0.05, ** P < 0.01 vs PMAP-36PW
Experimental: (§2) The inhibition zone assay was performed through the disk diffusion to evaluate the antimicrobial activity of Myr-36PW in vitro (Dunne et al., [2017]). The four above-mentioned bacterial strains were used as experimental strains, with L. monocytogenes CICC 21634 cultured in BHI medium, and P. aeruginosa GIM 1.551 cultured in TSB medium. The bacterial cells were cultured for 12 h at 37°C in the appropriate medium, and the bacterial cell suspension was spread on LB agar. The disks containing 10 μg of peptides (1 μg/μL) were attached to the solid medium and incubated at 37°C for 18 h. Finally the diameter of the inhibition zone was measured.

[4] = test system: P. aeruginosa GIM 1.551; experiment: Inhibition zone assay (disk diffusion); format: cell-based, Pseudomonas aeruginosa; parameters: key: +, means the peptide has antibacterial activity; details: disk 10 μg peptide, 18 h at 37°C, * P < 0.05, ** P < 0.01 vs PMAP-36PW
Experimental: as §2

[5] = test system: S. typhimurium SL 1344; experiment: Inhibition zone assay (disk diffusion); format: cell-based, Salmonella typhimurium; parameters: key: +, means the peptide has antibacterial activity; details: disk 10 μg peptide, 18 h at 37°C, * P < 0.05, ** P < 0.01 vs PMAP-36PW
Experimental: as §2

[6] = test system: S. aureus ATCC 25923; format: cell-based, Staphylococcus aureus; details: S. aureus ATCC 25923; * indicates resistant (CLSI, 2020)
Experimental: as §1

[7] = test system: L. monocytogenes CICC 21634; experiment: Inhibition zone assay (disk diffusion); format: cell-based, Listeria monocytogenes; parameters: key: +, means the peptide has antibacterial activity; details: disk 10 μg peptide, 18 h at 37°C, * P < 0.05, ** P < 0.01 vs PMAP-36PW
Experimental: as §2

[8] = test system: S. typhimurium SL 1344; format: cell-based, Salmonella typhimurium; details: S. typhimurium SL 1344; * indicates resistant (CLSI, 2020)
Experimental: as §1

- MICs of different classes of antibiotics [1]: 32* μg/mL
- MICs of different classes of antibiotics [2]: 64* μg/mL
- MICs of different classes of antibiotics [6]: <0.25 µg/mL
- MICs of different classes of antibiotics [8]: 4 µg/mL
Compound: CO/N=C(\C(=O)N[C@@H]1C(=O)N2C(C(=O)[O-])=C(CSC(=O)c3ccco3)CS[C@H]12)c1csc(N)n1.[Na+] [Ceftiofur Sodium, Ceftiofur sodium]
- In vitro antibacterial activity (disk diffusion) [3]: +
- In vitro antibacterial activity (disk diffusion) [4]: +
- In vitro antibacterial activity (disk diffusion) [5]: +
- In vitro antibacterial activity (disk diffusion) [7]: +
